Results reported in PMC8330100, “Similarities and differences in the localization, trafficking, and function of P-glycoprotein in MDR1-EGFP-transduced rat versus human brain capillary endothelial cell lines” (Fluids and Barriers of the CNS, 2021).

How the values were obtained:
[1] = biological target: Pgp in hCMEC/D3-MDR1-EGFP monolayers (Homo sapiens, UniProt P08183); conditions: [3H]dLop 5 nM
Method: (§1) For these experiments, a concentration equilibrium transport assay (CETA) was used, which is more sensitive to identify Pgp substrates than conventional bidirectional (concentration gradient) transport assays. In the CETA, the drug is added to both (apical and basolateral) sides of the monolayer, so that the initial drug concentration is the same in both compartments, thereby minimizing the effect of passive diffusion across the cell monolayer.
(§2) In the present study, the CETA assay was used to determine the flux of the radiolabeled Pgp substrate [N-methyl-^3H]N-desmethyl loperamide ([^3H]dLop) across hCMEC/D3-MDR1-EGFP and RBE4-MDR1-EGFP monolayers. […] Cells were grown on permeable ThinCert® filter supports (12-well, 0.4 µm pore size, PET, Greiner Bio-One). […] Transport studies were performed in triplicates seven days after seeding. […] After 30, 60, 120, 180, and 240 min, samples of 50 µL and 70 µL were retrieved from the apical and basolateral chambers, respectively. Quantification of substrate transport was conducted by liquid scintillation counting using a 1450 Microbeta Trilux liquid scintillation counter (Perkin Elmer Wallac). […] Baseline dLop levels were corrected by the amount of dLop absorbed by the filter system as measured in blank inserts without cells. […]

[2] = biological target: Pgp in RBE4-MDR1-EGFP monolayers (Homo sapiens, UniProt P08183); conditions: [3H]dLop 5 nM
Method: as §1, §2

[3] = biological target: Pgp in LLC-MDR1 monolayers (Homo sapiens, UniProt P08183); conditions: [3H]dLop 5 nM
RBE4-MDR1-EGFP cells [4] = test: Doxorubicin toxicity with or without Pgp inhibition by tariquidar, RBE4-MDR1-EGFP; format: cell-based, rat; conditions: doxorubicin 10 µM, 30 min
Method: (§3) For analysis of the effects of doxorubicin on Pgp-inhibited cells, confluent monolayers of RBE4- and hCMEC/D3-MDR1-EGFP cells grown on coverslips were preincubated with or without the Pgp inhibitor tariquidar (0.5 µM, 1 h, 37 °C) in Opti-MEM before the addition of doxorubicin (10 µM, 30 min, 37 °C). After substrate incubation, cells were covered with cell culture medium for 24 h. Cells were then washed once with PBS, fixed with paraformaldehyde (4%, 30 min), and permeabilized with Triton X-100 (1%, 5 min). Finally, cells were washed and coverslips were mounted in Prolong Gold antifade (Carl Roth GmbH, Karlsruhe, Germany) containing 4’,6-diamidino-2-phenylindole (DAPI) to stain nuclei. Analysis was performed with a Zeiss Axio Observer fluorescence microscope including an ApoTome.2 and using a 40× or 63× objective.

hCMEC/D3-MDR1-EGFP cells [5] = test: Doxorubicin toxicity with or without Pgp inhibition by tariquidar, hCMEC/D3-MDR1-EGFP; format: cell-based, human; conditions: doxorubicin 10 µM, 30 min
Method: as §3

RBE4-MDR1-EGFP cells [6] = test: Count of Pgp-EGFP-positive intracellular vesicles before and 24 h after doxorubicin, RBE4-MDR1-EGFP; format: cell-based, rat; conditions: doxorubicin 10 µM, 30 min, 24 h after treatment
Method: (§4) To evaluate the number of green-fluorescent (Pgp-EGFP positive) intracellular vesicles in RBE4- and hCMEC/D3-MDR1-EGFP cells before and 24 h after treatment with doxorubicin (10 µM, 30 min, 37 °C), imaging of the cells was performed using an inverted fluorescence microscope Lumascope 620 (Etaluma Carlsbach, USA) placed in the cell culture incubator. After treatment with doxorubicin, cells were maintained in a doxorubicin-free cell culture medium until imaging. Before imaging, cellular debris was removed by washing the cells twice with sterile PBS followed by the addition of fresh doxorubicin-free culture medium.

hCMEC/D3-MDR1-EGFP cells [7] = test: Count of Pgp-EGFP-positive intracellular vesicles before and 24 h after doxorubicin, hCMEC/D3-MDR1-EGFP; format: cell-based, human; conditions: doxorubicin 10 µM, 30 min, 24 h after treatment
Method: as §4

Pgp in rBCECs = conditions: cited from earlier work

Structure (SMILES): [3H]CNC(=O)C(CCN1CCC(O)(c2ccc(Cl)cc2)CC1)(c1ccccc1)c1ccccc1 [dLop, [N-methyl-^3H]N-desmethyl loperamide]
- asymmetrical (basolateral to apical) transport in CETA [1]: not observed
- asymmetrical (basolateral to apical) transport in CETA [2]: not observed
- asymmetrical (basolateral to apical) transport in CETA [3]: such transport was obtained

Structure (SMILES): COc1cccc2c1C(=O)c1c(O)c3c(c(O)c1C2=O)C[C@@](O)(C(=O)CO)C[C@@H]3O[C@H]1C[C@H](N)[C@H](O)[C@H](C)O1 [doxorubicin]
- toxicity 24 h after exposure, Pgp inhibited (RBE4-MDR1-EGFP cells [4]; after tariquidar 0.5 µM): cell death
- toxicity 24 h after exposure, absence of Pgp inhibition (RBE4-MDR1-EGFP cells [4]; no tariquidar): without any signs of toxicity
- toxicity 24 h after exposure, Pgp inhibited (hCMEC/D3-MDR1-EGFP cells [5]; after tariquidar 0.5 µM): cell death
- toxicity 24 h after exposure, absence of Pgp inhibition (hCMEC/D3-MDR1-EGFP cells [5]; no tariquidar): without any signs of toxicity
- increase of average number of Pgp-EGFP-positive vesicles per cell (RBE4-MDR1-EGFP cells [6]): 220%
- increase of average number of Pgp-EGFP-positive vesicles per cell (hCMEC/D3-MDR1-EGFP cells [7]): 170%

Structure (SMILES): COc1ccc(C[C@H](N)C(=O)N[C@H]2[C@@H](O)[C@H](n3cnc4c(N(C)C)ncnc43)O[C@@H]2CO)cc1 [puromycin]
- effect of drug exposure on Rho123 accumulation (Pgp in rBCECs): significantly reduced
